ChEMBL document CHEMBL1201862, “PubChem BioAssay data set” (2004)
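Method: 48-hour compound exposure of cells in 96-well plates, five concentrations, linear interpolation of endpoints. Here, GI50 denotes the concentration required for 50% inhibition of growth.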 Calls of active or inactive are those of the source. No stated cut-off is given here; in the data, active = GI50 up to about 1.1 µM and inactive = higher.

Tests used:
Assay in all cases: NCI-60 cell line screen, 48 h
RXF 393 = tested on: RXF 393
HCT-116 = tested on: HCT-116
UACC-62 = tested on: UACC-62
SK-OV-3 = tested on: SK-OV-3
MDA-MB-435 = tested on: MDA-MB-435
786-0 = tested on: 786-0
A549 = tested on: A549
SN12C = tested on: SN12C
OVCAR-3 = tested on: OVCAR-3
COLO 205 = tested on: COLO 205
HOP-92 = tested on: HOP-92
NCI-H226 = tested on: NCI-H226
CCRF-CEM = tested on: CCRF-CEM
MDA-MB-231 = tested on: MDA-MB-231
M14 = tested on: M14
MDA-N = tested on: MDA-N
SK-MEL-5 = tested on: SK-MEL-5
IGROV-1 = tested on: IGROV-1
K562 = tested on: K562
HCC 2998 = tested on: HCC 2998

Compound	GI50 (RXF 393)	GI50 (HCT-116)	GI50 (UACC-62)	GI50 (SK-OV-3)	GI50 (MDA-MB-435)	GI50 (786-0)	GI50 (A549)	GI50 (SN12C)	GI50 (OVCAR-3)	GI50 (COLO 205)	GI50 (HOP-92)	GI50 (NCI-H226)	GI50 (CCRF-CEM)	GI50 (MDA-MB-231)	GI50 (M14)	GI50 (MDA-N)	GI50 (SK-MEL-5)	GI50 (IGROV-1)	GI50 (K562)	GI50 (HCC 2998)
CC12CCC3c4ccc(O)cc4CCC3C1C/C(=N\O)C2O (stereo unspecified)	> 100 µM (inactive)	> 100 µM (inactive)	> 100 µM (inactive)	> 100 µM (inactive)	> 100 µM (inactive)	> 100 µM (inactive)	> 100 µM (inactive)	> 100 µM (inactive)	> 100 µM (inactive)	> 100 µM (inactive)	> 100 µM (inactive)	> 100 µM (inactive)	42.7 µM (inactive)	> 100 µM (inactive)	> 100 µM (inactive)	> 100 µM (inactive)	> 100 µM (inactive)	> 100 µM (inactive)	> 100 µM (inactive)	–
CCNC(=O)c1cc(Cl)ccc1NC(=O)C12CC3CC(CC(C3)C1)C2	19.2 µM (inactive)	31.3 µM (inactive)	–	–	29 µM (inactive)	22.8 µM (inactive)	37.2 µM (inactive)	32.7 µM (inactive)	36.1 µM (inactive)	31 µM (inactive)	30.4 µM (inactive)	> 100 µM (inactive)	23.2 µM (inactive)	71.8 µM (inactive)	31.8 µM (inactive)	22.5 µM (inactive)	30.1 µM (inactive)	33.1 µM (inactive)	28.2 µM (inactive)	–
CCOP(=O)(/C=C/n1cnc2c(=O)n(C(C)=O)c(N)nc21)OCC	> 100 µM (inactive)	> 100 µM (inactive)	> 100 µM (inactive)	> 100 µM (inactive)	> 100 µM (inactive)	> 100 µM (inactive)	> 100 µM (inactive)	> 100 µM (inactive)	> 100 µM (inactive)	> 100 µM (inactive)	–	70.3 µM (inactive)	> 100 µM (inactive)	> 100 µM (inactive)	> 100 µM (inactive)	> 100 µM (inactive)	> 100 µM (inactive)	> 100 µM (inactive)	> 100 µM (inactive)	–
CN(C)c1ccc(/C=C/C(=O)CC(=O)/C=C/c2ccc(N(C)C)cc2)cc1	> 100 µM (inactive)	57.3 µM (inactive)	56.4 µM (inactive)	> 100 µM (inactive)	> 100 µM (inactive)	> 100 µM (inactive)	> 100 µM (inactive)	> 100 µM (inactive)	65.3 µM (inactive)	> 100 µM (inactive)	–	> 100 µM (inactive)	> 100 µM (inactive)	85.1 µM (inactive)	> 100 µM (inactive)	83.2 µM (inactive)	> 100 µM (inactive)	> 100 µM (inactive)	> 100 µM (inactive)	> 100 µM (inactive)
CC1=CC(O)(c2ccccc2)C(N2CCOCC2)N1O (stereo unspecified)	–	> 100 µM (inactive)	–	> 100 µM (inactive)	> 100 µM (inactive)	> 100 µM (inactive)	> 100 µM (inactive)	> 100 µM (inactive)	> 100 µM (inactive)	> 100 µM (inactive)	–	> 100 µM (inactive)	91.4 µM (inactive)	> 100 µM (inactive)	> 100 µM (inactive)	> 100 µM (inactive)	> 100 µM (inactive)	> 100 µM (inactive)	> 100 µM (inactive)	> 100 µM (inactive)
CCOc1ccc(NC(=S)N/C=C(/C(C)=O)C(=O)Nc2ccccc2C)cc1	> 100 µM (inactive)	> 100 µM (inactive)	> 100 µM (inactive)	> 100 µM (inactive)	> 100 µM (inactive)	> 100 µM (inactive)	> 100 µM (inactive)	> 100 µM (inactive)	> 100 µM (inactive)	> 100 µM (inactive)	–	> 100 µM (inactive)	–	> 100 µM (inactive)	> 100 µM (inactive)	> 100 µM (inactive)	> 100 µM (inactive)	> 100 µM (inactive)	> 100 µM (inactive)	> 100 µM (inactive)
O=C(NC(=S)Nc1ccc(Br)cc1)c1ccc2c(c1)Sc1ccccc1O2	–	> 100 µM (inactive)	68.2 µM (inactive)	40.2 µM (inactive)	> 100 µM (inactive)	51.5 µM (inactive)	> 100 µM (inactive)	95.7 µM (inactive)	> 100 µM (inactive)	> 100 µM (inactive)	22.5 µM (inactive)	> 100 µM (inactive)	> 100 µM (inactive)	58.6 µM (inactive)	> 100 µM (inactive)	> 100 µM (inactive)	> 100 µM (inactive)	49.3 µM (inactive)	> 100 µM (inactive)	–
CCCCNC(=O)c1cc(S(=O)(=O)n2ccnc2O)c(SC)cc1Cl	> 100 µM (inactive)	> 100 µM (inactive)	> 100 µM (inactive)	> 100 µM (inactive)	> 100 µM (inactive)	> 100 µM (inactive)	> 100 µM (inactive)	> 100 µM (inactive)	> 100 µM (inactive)	> 100 µM (inactive)	–	–	> 100 µM (inactive)	> 100 µM (inactive)	> 100 µM (inactive)	> 100 µM (inactive)	> 100 µM (inactive)	> 100 µM (inactive)	> 100 µM (inactive)	> 100 µM (inactive)
CC(=O)c1ccccc1NP(=O)(c1ccccc1)c1ccccc1	43.2 µM (inactive)	53.2 µM (inactive)	35.2 µM (inactive)	20.4 µM (inactive)	38.7 µM (inactive)	> 100 µM (inactive)	56.9 µM (inactive)	69.5 µM (inactive)	43.1 µM (inactive)	13.2 µM (inactive)	–	–	33.5 µM (inactive)	32.5 µM (inactive)	33.9 µM (inactive)	36.9 µM (inactive)	47.3 µM (inactive)	46.5 µM (inactive)	62.5 µM (inactive)	> 100 µM (inactive)
O=C1c2ccccc2C(=O)c2sc(Nc3ccccc3C(F)(F)F)nc21	20.8 µM (inactive)	28.6 µM (inactive)	11.6 µM (inactive)	16.7 µM (inactive)	4.82 µM (inactive)	16.4 µM (inactive)	21.2 µM (inactive)	32.6 µM (inactive)	7.33 µM (inactive)	8.89 µM (inactive)	10.6 µM (inactive)	–	3.79 µM (inactive)	0.264 µM (active)	21.7 µM (inactive)	12.5 µM (inactive)	8.05 µM (inactive)	12.5 µM (inactive)	3.01 µM (inactive)	15.5 µM (inactive)
Cc1n[nH]c(=O)n1/N=C/c1cccnc1	–	> 100 µM (inactive)	> 100 µM (inactive)	> 100 µM (inactive)	> 100 µM (inactive)	> 100 µM (inactive)	> 100 µM (inactive)	> 100 µM (inactive)	> 100 µM (inactive)	> 100 µM (inactive)	33.4 µM (inactive)	> 100 µM (inactive)	> 100 µM (inactive)	> 100 µM (inactive)	> 100 µM (inactive)	> 100 µM (inactive)	> 100 µM (inactive)	> 100 µM (inactive)	> 100 µM (inactive)	> 100 µM (inactive)
CCCCCC(C(O)C#N)C(O)(C(F)(F)F)C(F)(F)F (stereo unspecified)	–	> 10 µM (inactive)	> 10 µM (inactive)	> 10 µM (inactive)	> 10 µM (inactive)	> 10 µM (inactive)	> 10 µM (inactive)	> 10 µM (inactive)	> 10 µM (inactive)	> 10 µM (inactive)	> 10 µM (inactive)	–	> 10 µM (inactive)	> 10 µM (inactive)	> 10 µM (inactive)	> 10 µM (inactive)	> 10 µM (inactive)	> 10 µM (inactive)	> 10 µM (inactive)	> 10 µM (inactive)
CC1(C)C(=S)C(C)(C)C1=S	–	> 100 µM (inactive)	> 100 µM (inactive)	> 100 µM (inactive)	> 100 µM (inactive)	> 100 µM (inactive)	> 100 µM (inactive)	> 100 µM (inactive)	> 100 µM (inactive)	> 100 µM (inactive)	–	> 100 µM (inactive)	–	> 100 µM (inactive)	> 100 µM (inactive)	> 100 µM (inactive)	> 100 µM (inactive)	> 100 µM (inactive)	> 100 µM (inactive)	> 100 µM (inactive)
Cc1cc(-c2nc3c(F)cccc3s2)ccc1N	41.7 µM (inactive)	85.1 µM (inactive)	21 µM (inactive)	> 100 µM (inactive)	57.3 µM (inactive)	92.5 µM (inactive)	49.3 µM (inactive)	28.2 µM (inactive)	> 100 µM (inactive)	80.5 µM (inactive)	> 100 µM (inactive)	–	3.94 µM (inactive)	> 100 µM (inactive)	97.5 µM (inactive)	70.1 µM (inactive)	62.2 µM (inactive)	–	40.3 µM (inactive)	–
O=C(O)CCc1nc(-c2ccccc2)c(-c2ccccc2)o1 [OXAPROZIN]	> 100 µM (inactive)	> 100 µM (inactive)	> 100 µM (inactive)	> 100 µM (inactive)	> 100 µM (inactive)	> 100 µM (inactive)	> 100 µM (inactive)	> 100 µM (inactive)	> 100 µM (inactive)	> 100 µM (inactive)	> 100 µM (inactive)	> 100 µM (inactive)	> 100 µM (inactive)	> 100 µM (inactive)	> 100 µM (inactive)	> 100 µM (inactive)	> 100 µM (inactive)	> 100 µM (inactive)	> 100 µM (inactive)	–
